These results are taken from patent publication US10364323B2, “Method for producing polyether carbonate polyols” (priority 2015, dated 2019).

The data set can be described thus: physchem. The text has this: The pKa in the context of the process according to the invention is to be understood as meaning the negative decadic logarithm of the first dissociation constant of the carboxylic acid at a temperature of 25 degrees Celsius. […] The pKa of the carboxylic acid may be measured by determining the pH at the half-equivalence point. To this end, an aqueous solution of the carboxylic acid is titrated against sodium hydroxide solution of a defined concentration and in each case the pH of the solution is measured using a calibrated combination pH electrode. […] According to the Henderson-Hasselbalch equation at the half-equivalence point the pKa corresponds to the measured pH because the acid and its corresponding base are present in equal concentration. Carboxylic acids having an insufficient solubility in water are titrated in methanolic solution (pKLy=16.7) or ethanolic solution (pKLy=19.1), wherein pKLy is defined as follows for non-aqueous media.
[formula] […] Chem., 1985, Vol. 57, No. 6, pp. 865-876.

As a reminder, the pKa is the pH at which an ionisable group is half protonated.

Consider `O=C(O)CCCCCC(=O)O` [Pimelic acid], for which the pKa was 4.71.
Regarding `O=C(O)C(=O)O` [Oxalic acid], the pKa was determined as 1.46.
